Key:
Assay in all cases: relative viability (nuclei count vs DMSO), 5 days (fraction); higher = more cells survive
OSI-027 + Crizotinib = compound: COc1cccc2cc(-c3nc([C@H]4CC[C@H](C(=O)O)CC4)n4ncnc(N)c34)[nH]c12 [OSI-027] + C[C@@H](Oc1cc(-c2cnn(C3CCNCC3)c2)cnc1N)c1c(Cl)ccc(F)c1Cl [Crizotinib] (partner 1 µM)
In short: (§1)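 Lung cancer cell lines, seeded in 1536-well plates, were treated the following day by pin tool with a single drug or with five library-drug doses (not always all listed) in √10 steps on top of a fixed anchor-drug dose. Cells were fixed and nuclei stained in one step after 5 days, and nuclei were counted. Relative viability is the nuclei count for treated wells divided by that for vehicle wells, reported as medians of duplicate plates.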

OSI-027 + Decitabine = compound: COc1cccc2cc(-c3nc([C@H]4CC[C@H](C(=O)O)CC4)n4ncnc(N)c34)[nH]c12 [OSI-027] + Nc1ncn([C@H]2C[C@H](O)[C@@H](CO)O2)c(=O)n1 [Decitabine] (partner 2 µM)
In short: as §1

Vemurafenib + Foretinib = compound: CCCS(=O)(=O)Nc1ccc(F)c(C(=O)c2c[nH]c3ncc(-c4ccc(Cl)cc4)cc23)c1F [Vemurafenib] + COc1cc2c(Oc3ccc(NC(=O)C4(C(=O)Nc5ccc(F)cc5)CC4)cc3F)ccnc2cc1OCCCN1CCOCC1 [Foretinib] (partner 0.25 µM)
In short: as §1

Alpelisib + Lapatinib = compound: Cc1nc(NC(=O)N2CCC[C@H]2C(N)=O)sc1-c1ccnc(C(C)(C)C(F)(F)F)c1 [Alpelisib] + CS(=O)(=O)CCNCc1ccc(-c2ccc3ncnc(Nc4ccc(OCc5cccc(F)c5)c(Cl)c4)c3c2)o1 [Lapatinib] (partner 2 µM)
In short: as §1

UMC-11 was tested, and the relative viability (OSI-027 + Crizotinib; first compound 0.01 µM) was 0.499, the relative viability (OSI-027 + Crizotinib; first compound 0.03162 µM) was 0.535 and the relative viability (OSI-027 + Crizotinib; first compound 0.1 µM) was 0.587. The relative viability (OSI-027 + Crizotinib; first compound 0.3162 µM) was 0.491, the relative viability (OSI-027 + Crizotinib; first compound 1 µM) was 0.378 and the relative viability (OSI-027 + Decitabine; first compound 0.01 µM) was 0.612. The relative viability (OSI-027 + Decitabine; first compound 0.03162 µM) was 0.647, the relative viability (OSI-027 + Decitabine; first compound 0.1 µM) was 0.52 and the relative viability (OSI-027 + Decitabine; first compound 0.3162 µM) was 0.492. It also gave a relative viability (OSI-027 + Decitabine; first compound 1 µM) of 0.417, a relative viability (Vemurafenib + Foretinib; first compound 0.03162 µM) of 1.02 and a relative viability (Vemurafenib + Foretinib; first compound 0.1 µM) of 1. It also gave a relative viability (Vemurafenib + Foretinib; first compound 0.3162 µM) of 1.15, a relative viability (Vemurafenib + Foretinib; first compound 1 µM) of 0.923 and a relative viability (Alpelisib + Lapatinib; first compound 0.04 µM) of 1.03. For the same cell line, the relative viability (Alpelisib + Lapatinib; first compound 0.1265 µM) was 0.948, the relative viability (Alpelisib + Lapatinib; first compound 0.4 µM) was 1.01 and the relative viability (Alpelisib + Lapatinib; first compound 1.265 µM) was 1.02. For the same cell line, the relative viability (Alpelisib + Lapatinib; first compound 4 µM) was 0.875.
